Data on one molecule can be found in patent US20100203575A1, “In Vitro Beating Heart Model” (INSERM (Institut National de la Sante et de la Recherche …, priority 2007, published 2010).

Experiment [1] concerns heart slice cultures. The protocol: Additional analysis was performed on 3 slices, at 30 days after plating using a confocal laser scanning microscope (Zeiss), following incubation with 5 μM fluo-4 AM (Invitrogen, France) for 20 min at 37° C.
To monitor spontaneous Ca2+ spiking, heart slice cultures, were loaded with 5 μmol/L Fluo-4 AM ester and the temporal change of fluorescent intensity was measured at physiological temperature (37° C.).

Experiment [2] has as its system human heart slices. As to conditions: slices from 8 week-old human embryo. The protocol: (§1) Cultures were prepared from ventricular sections of 3 day-old rats (Charles River, France) or 8 weeks-old human embyros. The hearts were removed and placed in Phosphate-Buffered Saline (PBS), atria were removed and the ventricles sliced at 1 mm-thickness using a rodent heart matrix (Harvard Apparatus). The heart slices were immediately transferred to a Millicell-CM 0.4 μm membrane (Millipore, France) and the insert placed into a 6 well-plate containing 1 ml of medium.
(§2) The culture medium consisted of DMEM/F12 medium supplemented with 20% Knockout Serum Replacement, 1% non essential amino acids, 2 mM L-glutamine, 0.1 mM β-mercaptoethanol, and 1% PS (Invitrogen, France). Heart slices were maintained for 30-80 days at 37° C. in a humidified atmosphere containing 5% CO2.
(§3) Further functional characterization of the contractile function of ventricular slices was carried out on 24 slices, at 30 days after plating, using a stereomicroscope and a temperature-controlled stage set at 37° C., following incubation with 10, 100nM and 1 μM of epinephrine (Sigma, France). Beating frequency was monitored 3 min after pharmacological stimulation.

For experiment [3], the system named is heart slice cultures. The following applies: 10, 100 nmol/L and 1 μmol/L, 30 days after plating, 37° C., monitored 3 min after stimulation. On the procedure: as §1, §2, §3

Where two headings read alike, the source gives them in different places.

Take `CNC[C@H](O)c1ccc(O)c(O)c1` [epinephrine]: in experiment [1] (heart slice loaded with fluo-4, confocal analysis), the “Ca2+-transient amplitude and frequency” value is “dose-dependent increase in Ca2+-transient amplitude and frequency”. Further, the “concentration giving maximal response” value in experiment [1] (tested 10, 100 nmol/L and 1 μmol/L) was 1 µmol/L. In addition, the “spontaneous beating frequency of human heart slices” value is “increased spontaneous beating frequency of both human heart slices, in a dose-dependent manner” in experiment [2] and “increases the frequencies of beating in human heart slices” in experiment [2] (listed as Epinephrine). In addition, the results for the “spontaneous beating frequencies of heart slice” value in experiment [3] and in experiment [3] (listed as Epinepfrine) were “increased the spontaneous beating frequencies of heart slice in dose-response manner” and “increased the frequencies of spontaneous beating in dose-response manner”, respectively.
